Laboratory results: US10792274B2, “Dehydroacetic acid (DHAA) and derivative for uses in treating cancer” (Emory University, priority 2016, dated 2020)
“Also recorded” adds a separate entry of the source.

What was measured:
[1] = biological target: BRAF V600E (Homo sapiens, UniProt P15056, V600E); assay: thermal melt shift assay, purified recombinant protein; type: binding
Protocol: Arrows in the panel indicate melting temperatures at 0 μM (left) and 400 μM (right).
Whether functional inhibition of acetoacetate would attenuate BRAF V600E tumor growth was examined. Dehydroacetic acid (DHAA) (FIG. 4A) is an inhibitory homologue of acetoacetate.

[2] = biological target: BRAF V600E-MEK1 binding (Homo sapiens, UniProt P15056, V600E); assay: cell-free in vitro coupled protein-protein binding and kinase assay; type: biochemical; settings: substance alone
Protocol: Whether DHAA inhibits BRAF V600E directly was examined. […] In contrast, DHAA had no effect on BRAF WT-MEK1 binding or MEK1 phosphorylation in a control experiment using purified BRAF WT incubated with MEK1 in the presence of acetoacetate (FIG. 4I left panel). […] This is physiologically consistent with the acetoacetate levels determined as approximately 300 μM in stable HMGCL knockdown A375 and A2058 cells.

[3] = test system: diverse BRAF V600E positive or negative human melanoma cells; assay: control treatments of melanoma cells; type: cell-based
Protocol: To exclude potential effects of the lithium ion, a series of experiments were performed using a control salt lithium chloride.
In addition, similar studies were performed to exclude possible effects from the potential degradation product of acetoacetate, acetone.

[4] = test system: BRAF V600E-expressing human melanoma A375 cells; assay: A375 xenograft in nude mice; type: in vivo; settings: single agent; for xenograft tumor growth (growth rates, sizes, masses): normal diet
[5] = serum and tumor metabolite levels and body weight of xenograft mice; type: in vivo; settings: effect of treatment
[6] = test system: NRAS Q61K-expressing HMCB cells; assay: HMCB xenograft in nude mice; type: in vivo; settings: single agent
[7] = chronic injection of acetoacetate or 3HB to nude mice; type: in vivo; settings: chronic injection for 4 weeks

Sequence of BRAF V600E-MEK1 binding (P15056 whole entry V600E): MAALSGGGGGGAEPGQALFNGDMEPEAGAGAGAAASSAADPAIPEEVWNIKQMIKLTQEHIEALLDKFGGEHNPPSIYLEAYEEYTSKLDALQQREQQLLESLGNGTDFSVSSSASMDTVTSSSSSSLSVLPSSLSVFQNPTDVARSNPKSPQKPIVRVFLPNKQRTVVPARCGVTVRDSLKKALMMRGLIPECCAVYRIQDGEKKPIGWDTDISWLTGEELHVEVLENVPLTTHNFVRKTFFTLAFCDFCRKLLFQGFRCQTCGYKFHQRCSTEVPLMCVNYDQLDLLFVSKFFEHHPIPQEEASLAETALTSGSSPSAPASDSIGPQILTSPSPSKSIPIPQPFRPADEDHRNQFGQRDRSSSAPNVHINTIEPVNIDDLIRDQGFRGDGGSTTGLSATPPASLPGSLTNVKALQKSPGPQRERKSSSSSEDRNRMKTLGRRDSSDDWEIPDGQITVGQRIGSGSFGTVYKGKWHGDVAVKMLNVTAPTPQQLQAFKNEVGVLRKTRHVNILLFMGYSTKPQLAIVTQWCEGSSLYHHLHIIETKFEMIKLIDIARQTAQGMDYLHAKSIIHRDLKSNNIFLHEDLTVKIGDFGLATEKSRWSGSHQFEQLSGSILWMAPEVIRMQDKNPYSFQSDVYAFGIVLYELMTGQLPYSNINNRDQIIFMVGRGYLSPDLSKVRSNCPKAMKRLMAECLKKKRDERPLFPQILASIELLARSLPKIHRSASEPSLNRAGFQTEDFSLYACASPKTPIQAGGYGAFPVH
Sequence of BRAF V600E (P15056 whole entry V600E): as above

CC(C)=O [acetone]
binding in thermal melt shift assay [1]: did not bind
promotion of association between purified BRAF V600E and MEK1 [2]: did not
BRAF V600E-MEK1 binding [3]: did not affect
cell proliferation rates [3]: did not affect
phosphorylation levels of MEK1 or ERK1/2 [3]: did not affect

[Cl-].[Li+] [lithium chloride]
binding in thermal melt shift assay [1]: did not bind
promotion of association between purified BRAF V600E and MEK1 [2]: did not
BRAF V600E-MEK1 binding [3]: did not affect
cell proliferation rates [3]: did not affect
phosphorylation levels of MEK1 or ERK1/2 [3]: did not affect
BRAF V600E-MEK1 binding in tumors [4]: nor did it affect
cell proliferation rates in tumors (Ki67 IHC staining) [4]: nor did it affect
xenograft tumor growth (growth rates, sizes, masses) [4]: did not affect tumor growth potential
serum cholesterol levels [5]: nor did it affect
serum levels of 3HB (β-hydroxybutyrate) [5]: nor did it affect

O=C(O)c1cccnc1 [niacin]
BRAF V600E-MEK1 binding in tumors [4]: decreased BRAF V600E-MEK1 association
cell proliferation rates in tumors (Ki67 IHC staining) [4]: reduced cell proliferation rates
phosphorylation of MEK1 and ERK1/2 in tumors [4]: decreased phosphorylation of MEK1 and ERK1/2
xenograft tumor growth (growth rates, sizes, masses) [4]: effectively attenuated tumor growth potential; also recorded: reduce BRAF V600E tumor growth
serum cholesterol levels [5]: marginally decreased serum cholesterol levels
serum levels of acetoacetate [5]: reduced serum levels of acetoacetate; also recorded: decrease serum acetoacetate levels

C[C@@H](O)CC(=O)O [3HB, D-β-hydroxybutyrate]
BRAF-MEK1 binding in tumors [6]: did not affect
cell proliferation rates in tumors (Ki67 IHC staining) [6]: did not affect
phosphorylation of MEK1 and ERK1/2 (MEK-ERK activation) in tumors [6]: did not affect
xenograft tumor growth (growth rates, sizes, masses) ([6]; normal diet): had no effect on growth rates or masses of tumor xenografts
serum levels of 3HB (β-hydroxybutyrate) [5]: increased serum levels of β-hydroxybutyrate
acetoacetate or 3HB levels in urine [7]: did not alter
serum 3HB levels [7]: increased 3HB
